Experimental data as given in paper PMC7570844, “Skin Damages—Structure Activity Relationship of Benzimidazole Derivatives Bearing a 5-Membered Ring System” (Molecules, 2020).
In brackets after ≈: the same amount, converted by molar mass.

How the values were obtained:
[1] = system: Respiratory syncytial virus; test: microbe, parasite or virus in culture; assay type: cell-based; settings: human respiratory syncytial virus, HeLa cells, read-out: Antiviral EC50
[2] = system: HEK293T (Normal Kidney Epithelial Cells); test: Cell proliferation inhibition, non-cancer control cells; settings: Homo sapiens, HEK-293T
[3] = system: vesicular stomatitis virus; test: microbe, parasite or virus in culture; assay type: cell-based; settings: HeLa, read-out: Antiviral EC50
HeLa cell cultures = settings: human
[4] = system: human cervical carcinoma cells (HeLa); test: Cell proliferation inhibition
[5] = Ferric reducing antioxidant power (FRAP) test; settings: mean ± SEM
Adeno virus-2 = test: Antiviral activity in HEL cell cultures (CPE, MTS); assay type: cell-based; settings: Adeno virus-2, HEL cells
Microsporum gypseum = test: Antidermatophyte plaque growth inhibition; assay type: cell-based; settings: Nannizzia gypsea; for inhibition at 100 µg/mL: M. gypseum, '+' has no key, read-out: Percent growth inhibition
Epidermophyton floccosum = test: Antidermatophyte plaque growth inhibition; assay type: cell-based; settings: for inhibition at 100 µg/mL: E. floccosum, '+' has no key, read-out: Percent growth inhibition
Coxsackie virus B4 = test: Antiviral activity in HeLa cell cultures (CPE, MTS); assay type: cell-based; settings: Enterovirus B; Coxsackie virus B4, HeLa cells
vaccinia virus = test: microbe, parasite or virus in culture; assay type: cell-based; settings: Orthopoxvirus vaccinia, HEL, read-out: Antiviral EC50
Human Coronavirus (229E) = test: microbe, parasite or virus in culture; assay type: cell-based; settings: HEL, read-out: Antiviral EC50
[6] = DPPH radical scavenging test; settings: mean ± SEM; for DPPH (% Inhibition): tested at 1 mg/mL
Microsporum canis = test: Antidermatophyte plaque growth inhibition; assay type: cell-based; settings: for inhibition at 100 µg/mL: M. canis, '+' has no key, read-out: Percent growth inhibition
[7] = system: herpes simplex virus-2 (G); test: Antiviral activity in HEL cell cultures (CPE, MTS); assay type: cell-based; settings: Human alphaherpesvirus 2; Herpes simplex virus-2, HEL cells
[8] = system: human embryonic lung (HEL) cell cultures
[9] = system: human pancreatic carcinoma cells (Mia Paca-2); test: Cell proliferation inhibition
[10] = UV filtering parameters of compounds in solution (MeOH, 290-400 nm)
[11] = system: herpes simplex virus-1 (KOS); test: Antiviral activity in HEL cell cultures (CPE, MTS); assay type: cell-based; settings: Human alphaherpesvirus 1, HEL cells
[12] = system: human T-lymphocyte cells (CEM); test: Cell proliferation inhibition
[13] = system: herpes simplex virus-1 TK-KOS ACVr; test: microbe, parasite or virus in culture; assay type: cell-based; settings: Human alphaherpesvirus 1, HEL, read-out: Antiviral EC50
Trichophyton tonsurans = test: Antidermatophyte plaque growth inhibition; assay type: cell-based; settings: for inhibition at 100 µg/mL: T. tonsurans, '+' has no key, read-out: Percent growth inhibition
[14] = system: Trichophyton mentagrophytes; test: Antidermatophyte plaque growth inhibition; assay type: cell-based; settings: for inhibition at 100 µg/mL: T. mentagrophytes, '+' has no key, read-out: Percent growth inhibition
[15] = system: human melanoma cells (SK-Mel 5); test: Cell proliferation inhibition
[16] = system: Candida albicans (ATCC 10231); test: Anti-Candida albicans broth microdilution MIC
[17] = Candida albicans, ATCC10231, 24 h

O=C(O)c1ccc2[nH]c(-c3ccc[nH]3)nc2c1 [Compound 13, 2-(1H-pyrrol-2-yl)-1H-benzimidazole-5-carboxylic Acid]
EC50 [1]: > 100 µM
IC50 [2]: > 100 µM
EC50 [3]: > 100 µM
Cytotoxic concentration (HeLa cell cultures): > 100 µM
IC50 [4]: > 100 µM
FRAP [5]: 108.89 ± 2.98 µmolTE/g
EC50 (Adeno virus-2): > 100 µM
inhibition at 100 µg/mL (Microsporum gypseum): 3.74 ± 1.49%
inhibition at 100 µg/mL (Epidermophyton floccosum): 21.1 ± 2.14%
EC50 (Coxsackie virus B4): > 100 µM
EC50 (vaccinia virus): > 100 µM
EC50 (Human Coronavirus (229E)): > 100 µM
DPPH (% Inhibition) [6]: 33.00 ± 1.28%
inhibition at 100 µg/mL (Microsporum canis): 8.66 ± 1.78%
EC50 [7]: > 100 µM
Cytotoxic concentration [8]: > 100 µM
melting point: > 250 °C
IC50 [9]: > 100 µM
SPF [10]: 7.40±0.23
UVA/UVB [10]: 0.7
UVAPF [10]: 1.10±0.09
λc (critical wavelength) [10]: 345 nm
EC50 [11]: > 100 µM
IC50 [12]: > 100 µM
EC50 [13]: > 100 µM
inhibition at 100 µg/mL (Trichophyton tonsurans): 4.55 ± 1.34%
inhibition at 100 µg/mL [14]: < 0%
IC50 [15]: > 100 µM

O=C(O)c1ccc2nc(-c3ccco3)[nH]c2c1 [Compound 14, 2-(furan-2-yl)-1H-benzimidazole-5-carboxylic Acid]
EC50 [1]: > 100 µM
IC50 [2]: > 100 µM
EC50 [3]: > 100 µM
Cytotoxic concentration (HeLa cell cultures): > 100 µM
IC50 [4]: > 100 µM
FRAP [5]: 26.67 ± 2.89 µmolTE/g
EC50 (Adeno virus-2): > 100 µM
inhibition at 100 µg/mL (Microsporum gypseum): < 0%
inhibition at 100 µg/mL (Epidermophyton floccosum): 6.45 ± 1.47%
EC50 (Coxsackie virus B4): > 100 µM
EC50 (vaccinia virus): > 100 µM
EC50 (Human Coronavirus (229E)): > 100 µM
DPPH IC50 [6]: 1416.38 ± 21.40 µg/mL
inhibition at 100 µg/mL (Microsporum canis): 18.7 ± 0.59%
EC50 [7]: > 100 µM
Cytotoxic concentration [8]: > 100 µM
melting point: > 250 °C
IC50 [9]: > 100 µM
SPF [10]: 16.66±1.21
UVA/UVB [10]: 0.5
UVAPF [10]: 1.20±0.10
λc (critical wavelength) [10]: 332 nm
EC50 [11]: > 100 µM
IC50 [12]: 75 ± 35 µM
EC50 [13]: > 100 µM
inhibition at 100 µg/mL (Trichophyton tonsurans): < 0%
inhibition at 100 µg/mL [14]: < 0%
IC50 [15]: > 100 µM
MIC [16, 17]: 16 µg/mL (≈ 70.1 µM)

O=C(O)c1ccc2[nH]c(-c3cccs3)nc2c1 [Compound 15, 2-(thiophen-2-yl)-1H-benzimidazole-5-carboxylic Acid]
EC50 [1]: > 100 µM
IC50 [2]: > 100 µM
EC50 [3]: > 100 µM
Cytotoxic concentration (HeLa cell cultures): > 100 µM
IC50 [4]: > 100 µM
FRAP [5]: 181.84 ± 2.66 µmolTE/g
EC50 (Adeno virus-2): > 100 µM
inhibition at 100 µg/mL (Microsporum gypseum): 2.14 ± 0.59%
inhibition at 100 µg/mL (Epidermophyton floccosum): 6.45 ± 2.98%
EC50 (Coxsackie virus B4): > 100 µM
EC50 (vaccinia virus): > 100 µM
EC50 (Human Coronavirus (229E)): > 100 µM
DPPH (% Inhibition) [6]: 30.23 ± 1.45%
inhibition at 100 µg/mL (Microsporum canis): 20.3 ± 0.54%
EC50 [7]: > 100 µM
Cytotoxic concentration [8]: > 100 µM
melting point: > 250 °C
IC50 [9]: 80 ± 12 µM
SPF [10]: 6.40±0.12
UVA/UVB [10]: 0.43
UVAPF [10]: 1.42±0.11
λc (critical wavelength) [10]: 342 nm
EC50 [11]: > 100 µM
IC50 [12]: 50 ± 10 µM
EC50 [13]: > 100 µM
inhibition at 100 µg/mL (Trichophyton tonsurans): 4.48 ± 0.9%
inhibition at 100 µg/mL [14]: < 0%
IC50 [15]: > 100 µM
MIC [16, 17]: 16 µg/mL (≈ 65.5 µM)

OC(Cn1cncn1)(Cn1cncn1)c1ccc(F)cc1F [Fluconazole, reference compound]
IC50 (Microsporum gypseum; M. gypseum growth, read-out: IC50): 18.5 ± 1.23 µg/mL (≈ 60.4 µM)
IC50 (Epidermophyton floccosum; E. floccosum growth, read-out: IC50): 0.08 ± 0.005 µg/mL (≈ 0.261 µM)
IC50 (Microsporum canis; M. canis growth, read-out: IC50): 29.6 ± 1.84 µg/mL (≈ 96.6 µM)
IC50 (Trichophyton tonsurans; T. tonsurans growth, read-out: IC50): 19.4 ± 0.87 µg/mL (≈ 63.4 µM)
IC50 ([14]; T. mentagrophytes growth, read-out: IC50): 3.53 ± 0.26 µg/mL (≈ 11.5 µM)
MIC ([16]; 48 h, tested 0.25-128 µg/mL, '-' = no activity): Neither synthesized compounds nor fluconazole showed activity
MIC [16, 17]: 0.5 µg/mL (≈ 1.63 µM)
